Patent US6355785B1, “Guanosine-rich oligonucleotide integrase inhibitors” (Aronex Pharmaceuticals, Inc., priority 1993, dated 2002)
pIC50: −log10 of the molar value. Like-named read-outs stand apart in the source and are kept apart here.

Experiments:
[1] = design: species or system cynomolgus monkeys; settings: cynomolgus monkey, in vivo
Protocol: Hematology and coagulation parameters. Hematology and coagulation parameters were determined 9-11 days prior to the start of the study, just prior to administering doses 1 (day 1) and 12 (day 23), five minutes after dosing (coagulation only), 30 minutes and 4 hours following dosing, one day after the 12th dose (day 24), and in recovery monkeys at sacrifice (day 37). The following were determined: red blood cell count and morphology, total and differential while blood cells, hemoglobin, hematocrit, prothrombin time, fibrinogen, mean cell hemoglobin, mean corpuscular volume, mean corpuscular hemoglobin concentration, platelet count, activate partial thromboplastin time, and D-dime. Hematology was determined at Sierra Nevada Laboratories (Reno, Nev.).

SIV integrase = molecular target: T1, SIV integrase (Simian immunodeficiency virus, UniProt P05896); experiment: SIV integrase 3′-processing assay; type: biochemical
T1 construct: Purified recombinant wild-type FIV and SIV integrases were generous gifts; purchased gift of Dr. R. Craigie (NIDDK) (not bought)
T1 sequence (P05896 1156-1448): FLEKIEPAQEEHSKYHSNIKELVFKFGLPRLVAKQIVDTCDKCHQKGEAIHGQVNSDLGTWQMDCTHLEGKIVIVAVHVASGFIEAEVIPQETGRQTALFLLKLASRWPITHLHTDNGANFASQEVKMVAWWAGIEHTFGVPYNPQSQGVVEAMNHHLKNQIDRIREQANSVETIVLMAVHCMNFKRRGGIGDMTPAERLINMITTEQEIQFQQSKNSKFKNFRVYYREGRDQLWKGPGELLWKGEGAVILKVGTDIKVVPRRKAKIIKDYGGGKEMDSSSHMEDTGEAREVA

[2] = molecular target: recombinant HIV-1 integrase (wild-type) (Human immunodeficiency virus type 1 group M subtype B, UniProt P12497); experiment: HIV-1 integrase 3′-processing and strand transfer assays; type: biochemical; design: Purified recombinant HIV-1 integrase enzyme (wild-type) was a generous gift from Dr. R. Craigie; purchased gift of Dr. R. Craigie, Laboratory of Molecular Biology, NIDDK (not bought)
[3] = 3′-processing, read-out: Anti-Integrase Assay IC50 3′-proc
[4] = strand transfer, read-out: Anti-Integrase Assay IC50 strand tran.

With “5′-gtggtgggtgggtgggt-3′ (GTGGTGGGTGGGTGGGT; phosphorothioate termini, further chemistry not given here) [T30177, pPT version of parent compound I100-15, 17 mer]” the eosinophils [1] was “acute decrease in eosinophils”, the lymphocytes [1] was “acute and transient increase in lymphocytes” and the pIC50 (SIV integrase) was 6.38.
For “5′-gtggtgggtgggtgggt-3′ [T30177] (GTGGTGGGTGGGTGGGT; phosphorothioate termini, further chemistry not given here)”, the “increase in potency (3′-processing) with magnesium instead of manganese” value [2] was “four to five-fold”, the pIC50 [2, 3] was 7.04 and the pIC50 ([2]; HIV-1 integrase, read-out: IC50 3′-processing) was 7.26. For the same compound, the pIC50 ([2]; read-out: Enzyme IC50 3-′process) was 7.31, the pIC50 ([2]; read-out: Enzyme IC50 Stran Trans) was 7.10 and the pIC50 [2, 4] was 7.34. The “% CD4” value (HIV-1 infected PBMCs; IIIB, drug 0.1 μM, day 7) was 1%, the “% CD8” value (HIV-1 infected PBMCs; IIIB, drug 0.1 μM, day 7) was 98% and the “CD4/CD8 Ratio” value (HIV-1 infected PBMCs; IIIB, drug 0.1 μM, day 7) was 0.01. For the same compound, the “% CD4” value (HIV-1 infected PBMCs; IIIB, drug 1.0 μM) was 18%, the “% CD8” value (HIV-1 infected PBMCs; IIIB, drug 1.0 μM) was 85% and the “CD4/CD8 Ratio” value (HIV-1 infected PBMCs; IIIB, drug 1.0 μM) was 0.21. The “% CD4” value (HIV-1 infected PBMCs; IIIB, drug 5.0 μM) was 27%, the “% CD8” value (HIV-1 infected PBMCs; IIIB, drug 5.0 μM) was 83% and the “CD4/CD8 Ratio” value (HIV-1 infected PBMCs; IIIB, drug 5.0 μM) was 0.33. The “% CD4” value (HIV-1 infected PBMCs; IIIB, drug 10.0 μM) was 27%, the “% CD8” value (HIV-1 infected PBMCs; IIIB, drug 10.0 μM) was 83% and the “CD4/CD8 Ratio” value (HIV-1 infected PBMCs; IIIB, drug 10.0 μM) was 0.33. The “% CD4” value (HIV-1 infected PBMCs; MN, drug 0.1 μM) was 5%, the “% CD8” value (HIV-1 infected PBMCs; MN, drug 0.1 μM) was 95% and the “CD4/CD8 Ratio” value (HIV-1 infected PBMCs; MN, drug 0.1 μM) was 0.05. For the same compound, the “% CD4” value (HIV-1 infected PBMCs; MN, drug 1.0 μM) was 18%, the “% CD8” value (HIV-1 infected PBMCs; MN, drug 1.0 μM) was 86% and the “CD4/CD8 Ratio” value (HIV-1 infected PBMCs; MN, drug 1.0 μM) was 0.21. The “% CD4” value (HIV-1 infected PBMCs; MN, drug 5.0 μM) was 25%, the “% CD8” value (HIV-1 infected PBMCs; MN, drug 5.0 μM) was 81% and the “CD4/CD8 Ratio” value (HIV-1 infected PBMCs; MN, drug 5.0 μM) was 0.31. For the same compound, the “% CD4” value (HIV-1 infected PBMCs; MN, drug 10.0 μM) was 26%, the “% CD8” value (HIV-1 infected PBMCs; MN, drug 10.0 μM) was 80% and the “CD4/CD8 Ratio” value (HIV-1 infected PBMCs; MN, drug 10.0 μM) was 0.33. The “% CD4” value (HIV-1 infected PBMCs; N. Amer. #1, drug 0.1 μM) was 21%, the “% CD8” value (HIV-1 infected PBMCs; N. Amer. #1, drug 0.1 μM) was 84% and the “CD4/CD8 Ratio” value (HIV-1 infected PBMCs; N. Amer. #1, drug 0.1 μM) was 0.25. For the same compound, the “% CD4” value (HIV-1 infected PBMCs; N. Amer. #1, drug 1.0 μM) was 26%, the “% CD8” value (HIV-1 infected PBMCs; N. Amer. #1, drug 1.0 μM) was 80% and the “CD4/CD8 Ratio” value (HIV-1 infected PBMCs; N. Amer. #1, drug 1.0 μM) was 0.33. For the same compound, the “% CD4” value (HIV-1 infected PBMCs; N. Amer. #1, drug 5.0 μM) was 27%, the “% CD8” value (HIV-1 infected PBMCs; N. Amer. #1, drug 5.0 μM) was 81% and the “CD4/CD8 Ratio” value (HIV-1 infected PBMCs; N. Amer. #1, drug 5.0 μM) was 0.33. For the same compound, the “% CD4” value (HIV-1 infected PBMCs; N. Amer. #1, drug 10.0 μM) was 29%, the “% CD8” value (HIV-1 infected PBMCs; N. Amer. #1, drug 10.0 μM) was 81% and the “CD4/CD8 Ratio” value (HIV-1 infected PBMCs; N. Amer. #1, drug 10.0 μM) was 0.36. For the same compound, the “% CD4” value (HIV-1 infected PBMCs; N. Amer. #2, drug 0.1 μM) was 4%, the “% CD8” value (HIV-1 infected PBMCs; N. Amer. #2, drug 0.1 μM) was 98% and the “CD4/CD8 Ratio” value (HIV-1 infected PBMCs; N. Amer. #2, drug 0.1 μM) was 0.04. For the same compound, the “% CD4” value (HIV-1 infected PBMCs; N. Amer. #2, drug 1.0 μM) was 5%, the “% CD8” value (HIV-1 infected PBMCs; N. Amer. #2, drug 1.0 μM) was 95% and the “CD4/CD8 Ratio” value (HIV-1 infected PBMCs; N. Amer. #2, drug 1.0 μM) was 0.05. The “% CD4” value (HIV-1 infected PBMCs; N. Amer. #2, drug 5.0 μM) was 28%, the “% CD8” value (HIV-1 infected PBMCs; N. Amer. #2, drug 5.0 μM) was 82% and the “CD4/CD8 Ratio” value (HIV-1 infected PBMCs; N. Amer. #2, drug 5.0 μM) was 0.34. The “% CD4” value (HIV-1 infected PBMCs; N. Amer. #2, drug 10.0 μM) was 27%, the “% CD8” value (HIV-1 infected PBMCs; N. Amer. #2, drug 10.0 μM) was 84% and the “CD4/CD8 Ratio” value (HIV-1 infected PBMCs; N. Amer. #2, drug 10.0 μM) was 0.32. The “% CD4” value (HIV-1 infected PBMCs; RF, drug 0.1 μM) was 10%, the “% CD8” value (HIV-1 infected PBMCs; RF, drug 0.1 μM) was 92% and the “CD4/CD8 Ratio” value (HIV-1 infected PBMCs; RF, drug 0.1 μM) was 0.11. For the same compound, the “% CD4” value (HIV-1 infected PBMCs; RF, drug 1.0 μM) was 26%, the “% CD8” value (HIV-1 infected PBMCs; RF, drug 1.0 μM) was 82% and the “CD4/CD8 Ratio” value (HIV-1 infected PBMCs; RF, drug 1.0 μM) was 0.32. The “% CD4” value (HIV-1 infected PBMCs; RF, drug 5.0 μM) was 31%, the “% CD8” value (HIV-1 infected PBMCs; RF, drug 5.0 μM) was 83% and the “CD4/CD8 Ratio” value (HIV-1 infected PBMCs; RF, drug 5.0 μM) was 0.37. For the same compound, the “% CD4” value (HIV-1 infected PBMCs; RF, drug 10.0 μM) was 29%, the “% CD8” value (HIV-1 infected PBMCs; RF, drug 10.0 μM) was 85% and the “CD4/CD8 Ratio” value (HIV-1 infected PBMCs; RF, drug 10.0 μM) was 0.34. The “% CD4” value (HIV-1 infected PBMCs; SE Asia isolate, drug 0.1 μM) was 2%, the “% CD8” value (HIV-1 infected PBMCs; SE Asia isolate, drug 0.1 μM) was 99% and the “CD4/CD8 Ratio” value (HIV-1 infected PBMCs; SE Asia isolate, drug 0.1 μM) was 0.02. The “% CD4” value (HIV-1 infected PBMCs; SE Asia isolate, drug 1.0 μM) was 12%, the “% CD8” value (HIV-1 infected PBMCs; SE Asia isolate, drug 1.0 μM) was 90% and the “CD4/CD8 Ratio” value (HIV-1 infected PBMCs; SE Asia isolate, drug 1.0 μM) was 0.13. The “% CD4” value (HIV-1 infected PBMCs; SE Asia isolate, drug 5.0 μM) was 29%, the “% CD8” value (HIV-1 infected PBMCs; SE Asia isolate, drug 5.0 μM) was 82% and the “CD4/CD8 Ratio” value (HIV-1 infected PBMCs; SE Asia isolate, drug 5.0 μM) was 0.35. The “% CD4” value (HIV-1 infected PBMCs; SE Asia isolate, drug 10.0 μM) was 29%, the “% CD8” value (HIV-1 infected PBMCs; SE Asia isolate, drug 10.0 μM) was 82% and the “CD4/CD8 Ratio” value (HIV-1 infected PBMCs; SE Asia isolate, drug 10.0 μM) was 0.35.
With `Cc1cn([C@H]2C[C@H](N=[N+]=[N-])[C@@H](CO)O2)c(=O)[nH]c1=O` [AZT, 3′-azido-3′-deoxythymidine] the pIC50 [2, 3] was less than 6.00, the pIC50 [2, 4] was less than 6.00 and the “% CD4” value (HIV-1 infected PBMCs; IIIB, drug 0.1 μM, day 7) was 31%. The “% CD8” value (HIV-1 infected PBMCs; IIIB, drug 0.1 μM, day 7) was 79%, the “% CD4” value (HIV-1 infected PBMCs; IIIB, drug 1.0 μM) was 30% and the “% CD8” value (HIV-1 infected PBMCs; IIIB, drug 1.0 μM) was 81%. For the same compound, the “% CD4” value (HIV-1 infected PBMCs; IIIB, drug 5.0 μM) was 27%, the “% CD8” value (HIV-1 infected PBMCs; IIIB, drug 5.0 μM) was 86% and the “% CD4” value (HIV-1 infected PBMCs; MN, drug 0.1 μM) was 25%. For the same compound, the “% CD8” value (HIV-1 infected PBMCs; MN, drug 0.1 μM) was 82%, the “% CD4” value (HIV-1 infected PBMCs; MN, drug 1.0 μM) was 35% and the “% CD8” value (HIV-1 infected PBMCs; MN, drug 1.0 μM) was 79%. For the same compound, the “% CD4” value (HIV-1 infected PBMCs; MN, drug 5.0 μM) was 36%, the “% CD8” value (HIV-1 infected PBMCs; MN, drug 5.0 μM) was 78% and the “% CD4” value (HIV-1 infected PBMCs; N. Amer. #1, drug 0.1 μM) was 25%. The “% CD8” value (HIV-1 infected PBMCs; N. Amer. #1, drug 0.1 μM) was 83%, the “% CD4” value (HIV-1 infected PBMCs; N. Amer. #1, drug 1.0 μM) was 25% and the “% CD8” value (HIV-1 infected PBMCs; N. Amer. #1, drug 1.0 μM) was 84%. For the same compound, the “% CD4” value (HIV-1 infected PBMCs; N. Amer. #1, drug 5.0 μM) was 26%, the “% CD8” value (HIV-1 infected PBMCs; N. Amer. #1, drug 5.0 μM) was 85% and the “% CD4” value (HIV-1 infected PBMCs; N. Amer. #2, drug 0.1 μM) was 6%. For the same compound, the “% CD8” value (HIV-1 infected PBMCs; N. Amer. #2, drug 0.1 μM) was 95%, the “% CD4” value (HIV-1 infected PBMCs; N. Amer. #2, drug 1.0 μM) was 13% and the “% CD8” value (HIV-1 infected PBMCs; N. Amer. #2, drug 1.0 μM) was 89%. For the same compound, the “% CD4” value (HIV-1 infected PBMCs; N. Amer. #2, drug 5.0 μM) was 25%, the “% CD8” value (HIV-1 infected PBMCs; N. Amer. #2, drug 5.0 μM) was 85% and the “% CD4” value (HIV-1 infected PBMCs; RF, drug 0.1 μM) was 23%. The “% CD8” value (HIV-1 infected PBMCs; RF, drug 0.1 μM) was 84%, the “% CD4” value (HIV-1 infected PBMCs; RF, drug 1.0 μM) was 32% and the “% CD8” value (HIV-1 infected PBMCs; RF, drug 1.0 μM) was 76%. For the same compound, the “% CD4” value (HIV-1 infected PBMCs; RF, drug 5.0 μM) was 34%, the “% CD8” value (HIV-1 infected PBMCs; RF, drug 5.0 μM) was 81% and the “% CD4” value (HIV-1 infected PBMCs; SE Asia isolate, drug 0.1 μM) was 29%. The “% CD8” value (HIV-1 infected PBMCs; SE Asia isolate, drug 0.1 μM) was 82%, the “% CD4” value (HIV-1 infected PBMCs; SE Asia isolate, drug 1.0 μM) was 31% and the “% CD8” value (HIV-1 infected PBMCs; SE Asia isolate, drug 1.0 μM) was 82%. The “% CD4” value (HIV-1 infected PBMCs; SE Asia isolate, drug 5.0 μM) was 29% and the “% CD8” value (HIV-1 infected PBMCs; SE Asia isolate, drug 5.0 μM) was 86%.
